US20220233661A1, “METHOD OF DETERMINING ELIGIBILITY OF CANCER PATIENT FOR PEPTIDE VACCINE THERAPY” (priority 2019, published 2022)

Tests used:
[1] = tested on: anti-peptide IgG in plasma; assay: Test Example 4: peptide-specific IgG titer pre and post vaccination, bead-based multiplexed Luminex assay; assay type: in vivo, human; conditions: for Pre-vaccination IgG Negative (number of patients) / Pre-vaccination IgG Positive (number of patients): cut off 10 FIU; for Post vaccination IgG: number of (positive) patients among vaccinated: positive IgG response; for Pre-vaccination IgG Negative patients: number of 2,588 patients below 10 FIU; for Pre-vaccination IgG Positive patients: number of 2,588 patients with ≥10 FIU; for Post vaccination IgG: (positive) patients: number of vaccinated patients with positive IgG response; for Correlation between immune responses and OS: Negative (mOS): patients with negative post-vaccination IgG response to the peptide; for Correlation between immune responses and OS: Positive (mOS): patients with positive post-vaccination IgG response to the peptide
Procedure: As described previously, IgG titer specific to the antigen peptides in plasma was measured by bead-based multiplexed Luminex assay (Luminex, Austin, Tex.) before and after vaccination, i.e., at the end of each cycle or at the end of the clinical trial (Non-Patent Literature 4). In brief, 30 mL of peripheral blood was obtained before and after vaccination. Plasma was incubated with 100 μL of peptide-coupled color-coded beads for 2 hours at 25° C. on a plate shaker. After the incubation, the resultant mixture was washed with a vacuum manifold apparatus and incubated with 100 μL of biotinylated goat anti-human IgG (gamma chain-specific; Vector Laboratories, Burlingame, Calif.) for 1 hour at 25° C. on a plate shaker. The plate was then washed, followed by addition of 100 μL of streptavidin-PE (Life Technologies) to each well, and incubation for 30 minutes at 25° C. on a plate shaker. The resultant beads were washed 4 times, followed by addition of 100 μL of Tween-PBS to each well, and detection of fluorescence intensity units (FIU) on the beads using the Luminex system. The cutoff values of anti-peptide IgG were set to 10 FIU in 100-fold diluted samples.
Pre-vaccination peptide-specific IgG titers to 31 peptides were measured using a Luminex system. As a detectable IgG level, 10 FIU was employed as the cut off level, as reported previously (Noguchi M, et al., Cancer Immunol Immunother. 2013 May; 62(5): 919-29; Sasada T, et al., Current Medicinal Chemistry. 21: 2332-2345, 2014; Kibe S, et al., Cancer Immunology Research 2014; 2(12): 1154-62).
Post-vaccination lgG titers were measured at the ends of the first cycle and the second cycle.

cancer patients = assay: Test Example 4: correlation between vaccination with individual peptides (or peptide sets) and OS, Cox proportional hazards regression; assay type: in vivo, human; conditions: for HR: Cox proportional hazards regression, OS; for Correlation between immune responses and OS: Negative (mOS) / Correlation between immune responses and OS: Positive (mOS): Table 20, <64% neutrophil and ≥26% lymphocyte; for Correlation between immune responses and OS: Negative (mOS): vaccinated patients with negative IgG response; for Correlation between immune responses and OS: Positive (mOS): vaccinated patients with positive IgG response
Procedure: The Student's t-test and the chi-square test were used to compare quantitative and categorical variables, respectively. OS was calculated as the time in months from the date of clinical trial enrollment to death or to the date of last contact. Time-to-event endpoints were analyzed using the Kaplan-Meier method, and between-group comparison for OS was conducted using the log-rank test. Clinical efficacy of the individual peptides for OS was evaluated by univariate and multivariate analyses with the Cox proportional hazards regression model, and HR and 95% CI were calculated. All reported p-values were two-sided, and p-values less than 0.05 were considered significant. JMP version 12 or SAS version 9.4 software (SAS Institute Inc., Cary, N.C.) was used to perform all analyses.
Correlation levels of the 31 peptides for OS were evaluated by the Cox proportional hazards regression model.
Similarly, in the 2,085 advanced cancer patients (stage IV+recurrence) and the 503 non-advanced cancer patients (I-III stages) correlation levels of the 31 peptides for OS were evaluated by the Cox proportional hazards regression model. […]

[2] = Table 20, patients showing both <64% neutrophil and ≥26% lymphocyte
[3] = patients showing detectable levels
[4] = patients showing positive responses
[5] = Table 18, all 2,588 cases, vaccinated vs non-vaccinated
[6] = Table 18, all 2,588 cases, median OS of patients under PPV containing the peptide
[7] = Table 18, all 2,588 cases, median OS of patients under PPV not containing the peptide
[8] = Table 19, 2,085 advanced cancer patients (stage IV+recurrence)
[9] = Table 19, 2,085 advanced cancer patients (stage IV+recurrence), PPV containing the peptide
[10] = Table 19, 2,085 advanced cancer patients (stage IV+recurrence), PPV not containing the peptide
[11] = Table 21, patients showing both <64% neutrophil and ≥26% lymphocyte
[12] = Table 21, patients showing both <64% neutrophil and ≥26% lymphocyte, PPV containing the peptide
[13] = Table 21, patients showing both <64% neutrophil and ≥26% lymphocyte, PPV not containing the peptide
[14] = 2,085 advanced cancer patients (stage IV+recurrence)

Sequence | Post vaccination IgG Median (FIU) [1, 2] | Pre-vaccination IgG Median (FIU) [1, 2] [FIU] | Pre-vaccination IgG Negative (number of patients) [1, 2] | Pre-vaccination IgG Positive (number of patients) [1, 2] | Post vaccination IgG: number of (positive) patients among vaccinated [1, 2] | Pre-vaccination IgG Negative patients [1] | Pre-vaccination IgG Positive patients [1] | Post vaccination IgG: (positive) patients [1] | Pre-vaccination IgG Median (FIU) [1, 3] [FIU] | Post vaccination IgG Median (FIU) [1, 4] | Correlation between immune responses and OS: Negative (mOS) [1] [months] | Correlation between immune responses and OS: Positive (mOS) [1] [months] | HR (cancer patients; [5]) | Vaccinate cases (mOS) (cancer patients; [6]) | Non-vaccinate cases (mOS) (cancer patients; [7]) | HR (cancer patients; [8]) | Vaccinate cases (mOS) (cancer patients; [9]) | Non-vaccinate cases (mOS) (cancer patients; [10]) | Correlation between immune responses and OS: Negative (mOS) (cancer patients) [months] | Correlation between immune responses and OS: Positive (mOS) (cancer patients) [months] | also measured
DYSARWNEI (listed as Homo sapiens) [SART2-93] | 8,633 FIU | 64 | 141 | 925 | 467(183) | 340 | 2,248 | 1137(362) | 66 | 3,435 FIU | 12.3 | 21.7 | 0.9 | 1,137(12.3) M | 413(11.5) M | 1.0 | 906(10.7) M | 340(10.2) M | 17.3 | 24.7 | positive rate of patients showing ≥10 FIU, pre-vaccination peptide-specific IgG ([1]; 2,588 patients, pre-vaccination): 87%; HR (cancer patients; [11]): 1.0; Vaccinate cases (mOS) (cancer patients; [12]): 467(19.0) M; Non-vaccinate cases (mOS) (cancer patients; [13]): 158(17.6) M
DYVREHKDNI (listed as Homo sapiens) [EGFR-800] | 746 FIU | 32 | 431 | 635 | 176(79) | 1,046 | 1,542 | 390(156) | 30 | 715 FIU | 12.4 | 24.3 | 0.8 | 390(14.3) M | 1,160(11.1) M | 0.8 | 299(13.1) M | 947(9.6) M | 17.1 | 27.5 | median OS of non-vaccinated cases (cancer patients; [14]): 9.6 months; median OS of vaccinated cases (cancer patients; [14]): 13.1 months; HR (cancer patients; [11]): 0.9; Vaccinate cases (mOS) (cancer patients; [12]): 176(21.2) M; Non-vaccinate cases (mOS) (cancer patients; [13]): 449(21.2) M; median OS of vaccinated cases (cancer patients; all 2,588 cases, PPV containing the peptide): 14.3 months; median OS of non-vaccinated cases (cancer patients; all 2,588 cases, PPV not containing the peptide): 11.1 months
GIHKQKEKSR (listed as Homo sapiens) [PAP-248] | 1,981 FIU | 38 | 543 | 523 | 64(31) | 1,302 | 1,286 | 147(62) | 37 | 2,136 FIU | 9.9 | 21.1 | 1.0 | 147(11.4) M | 1,067(11.1) M | 0.8 | 124(10.1) M | 845(9.9) M | 13 | 21.3 | median OS of patients with the peptide vs patients without it (cancer patients; 1,066 patients with <64% neutrophil and ≥26% lymphocyte): shorter; HR (cancer patients; [11]): 1.1; Vaccinate cases (mOS) (cancer patients; [12]): 64(15.5) M; Non-vaccinate cases (mOS) (cancer patients; [13]): 443(17.6) M
HYRKWIKDTI (listed as Homo sapiens) [PSA-248] | 18,191 FIU | 47 | 231 | 835 | 107(81) | 553 | 2,035 | 283(200) | 48 | 13,165 FIU | 7.0 | 20.2 | 0.9 | 283(13.8) M | 1,267(11.6) M | 0.9 | 230(13.0) M | 1016(10.2) M | 9.6 | 27.4 | HR (cancer patients; [11]): 0.9; Vaccinate cases (mOS) (cancer patients; [12]): 107(20.4) M; Non-vaccinate cases (mOS) (cancer patients; [13]): 518(17.9) M
HYTNASDGL (listed as Homo sapiens) [Lck-208] | 9,551 FIU | 31 | 839 | 227 | 69(36) | 2,028 | 560 | 134(64) | 30 | 4,597 FIU | 16.0 | 30.5 | 0.9 | 134(19.7) M | 1,416(11.4) M | 0.7 | 103(17.1) M | 1143(10.0) M | 19.9 | 34 | median OS of non-vaccinated cases (cancer patients; [14]): 10 months; median OS of vaccinated cases (cancer patients; [14]): 17.1 months; HR (cancer patients; [11]): 0.7; Vaccinate cases (mOS) (cancer patients; [12]): 69(26.7) M; Non-vaccinate cases (mOS) (cancer patients; [13]): 556(17.6) M
ILEQSGEWWK (listed as Homo sapiens) [Lck-90] | 4,250 FIU | 43 | 215 | 851 | 210(100) | 501 | 2,087 | 502(187) | 44 | 3,350 FIU | 10.3 | 20.9 | 1.0 | 502(11.3) M | 712(11.0) M | 1.0 | 391(10.3) M | 578(9.4) M | 12 | 26.3 | HR (cancer patients; [11]): 1.0; Vaccinate cases (mOS) (cancer patients; [12]): 210(17.8) M; Non-vaccinate cases (mOS) (cancer patients; [13]): 297(17.5) M
